The source of these data is article PMC8298264, “Function of cofactor Akirin2 in the regulation of gene expression in model human neutrophil-like HL60 cells” (Bioscience Reports, 2021).

This assay has as its system human HL60 cells. Kind of assay: SWATH-MS proteomics, differential protein representation, akirin2 KO vs WT HL60 cells. The assay is classed as cell-based. Here is the method:
Total proteins were extracted from WT and akirin2 KO HL60 cells using the AllPrep DNA/RNA/Protein Mini Kit (Qiagen) and protein concentration was determined using the BCA Protein Assay with BSA (Sigma–Aldrich) as standard. Protein extracts (150 µg per sample, n=3 biological replicates) from each WT and KO cells were trypsin digested using the FASP Protein Digestion Kit (Expedeon Ltd., Abcam, Cambridge, U.K.) and sequencing grade trypsin (Promega, Madison, WI, U.S.A.) following manufacturer’s recommendations. The resulting peptides were finally desalted on to OMIX Pipette tips C18 (Agilent Technologies, Santa Clara, CA, U.S.A.), dried down and stored at −20 °C until mass spectrometry analysis. […] Three micrograms of each protein digest from the three biological replicates of WT and akirin2 KO HL60 cells were used for the generation of the reference spectral ion library as part of the SWATH-MS analysis.
Peptides were eluted in a 120-min gradient from 5 to 30% solvent B in solvent A followed by 15-min gradient from 30 to 60% solvent B in solvent A (solvent A: 0.1% formic acid in water, solvent B: 0.1% formic acid in acetonitrile) and directly injected into the mass spectrometer for analysis. For IDA experiments, the mass spectrometer was set to scanning full spectra (350–1400 m/z) using 250 ms accumulation time per spectrum, followed by up to 50 MS/MS scans (100–1500 m/z). Candidate ions with a charge state between +2 and +5 counts per second above a minimum threshold of 100 were isolated for fragmentation. One MS/MS spectrum was collected for 100 ms, before adding those precursor ions to the exclusion list for 15 s (mass spectrometer operated by Analyst TF 1.6, AB Sciex). Dynamic background subtraction was turned off. MS/MS analyses were recorded in high-sensitivity mode with rolling collision energy on and a collision energy spread of 5. For SWATH quantitative analysis, six independent samples (three replicates from WT and akirin2 KO HL60 cells, 5 µg each) were subjected to the cyclic DIA of mass spectra using the SWATH variable windows calculator (V 1.0, AB Sciex) and the SWATH acquisition method editor (AB Sciex), similar to established methods. […] For these experiments, a 50-ms survey scan (350–1400 m/z) was acquired at the beginning of each cycle, and SWATH–MS/MS spectra were collected from 100–1500 m/z for 70 ms at high-sensitivity mode, resulting in a cycle time of 3.6 s. Collision energy for each window was determined according to the calculation for a charge +2 ion-centered upon the window with a collision energy spread of 15. To create a spectral library of all the detectable peptides in the samples, the IDA MS raw files were combined and subjected to database search in unison using ProteinPilot software v. 5.0.1 (AB Sciex) with the Paragon algorithm. […] The detected protein threshold was set at 0.05. An independent false discovery rate (FDR) analysis, using the target–decoy approach provided by Protein Pilot (AB Sciex; https://sciex.com/products/software/proteinpilot-software), was used to assess the quality of identifications. Positive identifications were considered when identified proteins reached 1% of global FDR. […] Global normalization was performed according to the Total Area Sums (TAS) of all detected proteins in the samples. […] Heatmaps were prepared using the Heatmapper (http://www.heatmapper.ca/expression/) with average linkage and Euclidean distance measurement method.

The mark [1] stands for this setting: SWATH-MS, akirin2 KO vs WT HL60 cells, over-represented in KO.
Setting [2] is: akirin2 KO vs WT HL60 cells, sheet "Over-represented in KO".
Where [3] appears, read: SWATH-MS, akirin2 KO vs WT HL60 cells, under-represented in KO.
Where [4] appears, read: KO vs WT, akirin2 KO vs WT HL60 cells, sheet "Under-represented in KO".
[5] abbreviates: akirin2 KO vs WT HL60 cells, sheet "Under-represented in KO".
Setting [6] is: SWATH-MS, akirin2 KO vs WT HL60 cells, sheet "Under-represented in KO".
Setting [7] is: KO vs WT HL60 cells, sheet "Under-represented in KO".
Setting [8] is: Over-represented in KO, KO vs WT HL60 cells.

Take CD44 antigen: under setting [1], the “Fold Change” value was 2.131 and the “Log (Fold Change)” value is recorded as 0.3287.
The corresponding values for Cathepsin D are 2.358 and 0.3725.
In the same order, the values of Chitinase-3-like protein 1 are 1.904 and 0.2797.
In the case of “Deoxynucleoside triphosphate triphosphohydrolase SAMHD1”, under setting [1], the “Fold Change” value is given as 1.851 and the “Log (Fold Change)” value came out at 0.2674.
Regarding Eosinophil peroxidase, under setting [1], the “Fold Change” value is given as 5.162 and the “Log (Fold Change)” value came out at 0.7128.
As for Galectin-1, under setting [1], the “Fold Change” value came out at 1.707 and the “Log (Fold Change)” value was 0.2322.
Regarding Galectin-10, under setting [1], the “Fold Change” value is on record as 4.451 and the “Log (Fold Change)” value came out at 0.6485.
Consider Heat shock 70 kDa protein 1B, for which, under setting [1], the “Fold Change” value came out at 1.868 and the “Log (Fold Change)” value is 0.2713.
For Transferrin receptor protein 1, under setting [1], the “Fold Change” value is recorded as 3.145 and the “Log (Fold Change)” value worked out at 0.4976.
Take Vimentin: under setting [1], the “Fold Change” value is 3.958 and the “Log (Fold Change)” value amounted to 0.5975.
Turning to sp¦E9PAV3¦NACAM_HUMAN, under setting [2], the “Fold Change” value stood at 1.243 and the “Log (Fold Change)” value worked out at 0.09445.
Take sp¦E9PRG8¦CK098_HUMAN: under setting [2], the “Fold Change” value amounted to 1.224 and the “Log (Fold Change)” value came to 0.0879.
Consider sp¦O00148¦DX39A_HUMAN, for which, under setting [3], the “Fold Change” value came to 0.7315 and the “Log (Fold Change)” value is on record as -0.1358.
For sp¦O00231¦PSD11_HUMAN, under setting [2], the “Fold Change” value came out at 1.117 and the “Log (Fold Change)” value came to 0.04806.
As to sp¦O00264¦PGRC1_HUMAN, under setting [4], the “Fold Change” value is on record as 0.6168 and the “Log (Fold Change)” value is given as -0.2099.
Consider sp¦O14579¦COPE_HUMAN, for which, under setting [2], the “Fold Change” value was determined as 1.2285 and the “Log (Fold Change)” value is reported as 0.08937.
With sp¦O43148¦MCES_HUMAN, under setting [5], the “Fold Change” value amounted to 0.671 and the “Log (Fold Change)” value is listed as -0.1733.
In the case of sp¦O43447¦PPIH_HUMAN, under setting [2], the “Fold Change” value amounted to 1.22 and the “Log (Fold Change)” value amounted to 0.08634.
For the substance sp¦O43681¦GET3_HUMAN, under setting [6], the “Fold Change” value is recorded as 0.7665 and the “Log (Fold Change)” value is given as -0.1155.
For the substance sp¦O43813¦LANC1_HUMAN, under setting [3], the “Fold Change” value came out at 0.7366 and the “Log (Fold Change)” value is given as -0.1328.
Consider sp¦O75874¦IDHC_HUMAN, for which, under setting [1], the “Fold Change” value amounted to 1.681 and the “Log (Fold Change)” value turned out to be 0.2255.
Take sp¦O94804¦STK10_HUMAN: under setting [7], the “Fold Change” value is 0.5498 and the “Log (Fold Change)” value is -0.2598.
Turning to sp¦O95758¦PTBP3_HUMAN, under setting [3], the “Fold Change” value turned out to be 0.7281 and the “Log (Fold Change)” value is given as -0.1378.
For the substance sp¦P0CG38¦POTEI_HUMAN, under setting [6], the “Fold Change” value is reported as 0.7517 and the “Log (Fold Change)” value is recorded as -0.1239.
For sp¦P00367¦DHE3_HUMAN, under setting [5], the “Fold Change” value worked out at 0.6801 and the “Log (Fold Change)” value is -0.1674.
Regarding sp¦P02792¦FRIL_HUMAN, under setting [5], the “Fold Change” value turned out to be 0.2798 and the “Log (Fold Change)” value is given as -0.5531.
As for sp¦P04406¦G3P_HUMAN, under setting [8], the “Fold Change” value stood at 1.369 and the “Log (Fold Change)” value stood at 0.1364.
With sp¦P05556¦ITB1_HUMAN, under setting [5], the “Fold Change” value was determined as 0.257 and the “Log (Fold Change)” value was -0.5901.
With sp¦P07237¦PDIA1_HUMAN, under setting [8], the “Fold Change” value came out at 1.346 and the “Log (Fold Change)” value is on record as 0.1292.
For the substance sp¦P08238¦HS90B_HUMAN, under setting [2], the “Fold Change” value is recorded as 1.209 and the “Log (Fold Change)” value is reported as 0.08231.
sp¦P08621¦RU17_HUMAN: under setting [5], the “Fold Change” value is 0.6829 and the “Log (Fold Change)” value is -0.1657.
With sp¦P09622¦DLDH_HUMAN, under setting [7], the “Fold Change” value is 0.516 and the “Log (Fold Change)” value was -0.2873.
sp¦P10155¦RO60_HUMAN: under setting [6], the “Fold Change” value was found to be 0.7678 and the “Log (Fold Change)” value is on record as -0.1147.
On to sp¦P11142¦HSP7C_HUMAN, for which, under setting [1], the “Fold Change” value is reported as 1.579 and the “Log (Fold Change)” value stood at 0.1983.
In the case of sp¦P12268¦IMDH2_HUMAN, under setting [3], the “Fold Change” value is recorded as 0.7306 and the “Log (Fold Change)” value was -0.1363.
Turning to sp¦P12270¦TPR_HUMAN, under setting [5], the “Fold Change” value came out at 0.6414 and the “Log (Fold Change)” value is -0.1929.
Consider sp¦P13861¦KAP2_HUMAN, for which, under setting [2], the “Fold Change” value is listed as 1.201 and the “Log (Fold Change)” value came to 0.07946.
sp¦P14618¦KPYM_HUMAN: under setting [1], the “Fold Change” value is 1.553 and the “Log (Fold Change)” value is reported as 0.1913.
For sp¦P15531¦NDKA_HUMAN, under setting [2], the “Fold Change” value came out at 1.204 and the “Log (Fold Change)” value worked out at 0.08072.
Turning to sp¦P23284¦PPIB_HUMAN, under setting [8], the “Fold Change” value is 1.275 and the “Log (Fold Change)” value worked out at 0.1054.
For the substance sp¦P25786¦PSA1_HUMAN, under setting [8], the “Fold Change” value is recorded as 1.271 and the “Log (Fold Change)” value is recorded as 0.1042.
As for sp¦P28070¦PSB4_HUMAN, under setting [6], the “Fold Change” value is 0.7608 and the “Log (Fold Change)” value is listed as -0.1188.
With sp¦P29350¦PTN6_HUMAN, under setting [3], the “Fold Change” value is recorded as 0.7017 and the “Log (Fold Change)” value is -0.1538.
Regarding sp¦P31040¦SDHA_HUMAN, under setting [7], the “Fold Change” value turned out to be 0.5299 and the “Log (Fold Change)” value is on record as -0.2758.
For sp¦P31689¦DNJA1_HUMAN, under setting [8], the “Fold Change” value is given as 1.309 and the “Log (Fold Change)” value was found to be 0.117.
With sp¦P35250¦RFC2_HUMAN, under setting [6], the “Fold Change” value was determined as 0.7882 and the “Log (Fold Change)” value is -0.1034.
As for sp¦P35579¦MYH9_HUMAN, under setting [5], the “Fold Change” value was 0.3518 and the “Log (Fold Change)” value is listed as -0.4538.
With sp¦P36404¦ARL2_HUMAN, under setting [3], the “Fold Change” value is given as 0.6935 and the “Log (Fold Change)” value was -0.1589.
Turning to sp¦P38646¦GRP75_HUMAN, under setting [3], the “Fold Change” value stood at 0.7142 and the “Log (Fold Change)” value is recorded as -0.1462.
As to sp¦P40937¦RFC5_HUMAN, under setting [7], the “Fold Change” value is 0.4492 and the “Log (Fold Change)” value was -0.3475.
On to sp¦P46013¦KI67_HUMAN, for which, under setting [2], the “Fold Change” value was 1.204 and the “Log (Fold Change)” value was 0.08052.
With sp¦P49137¦MAPK2_HUMAN, under setting [8], the “Fold Change” value was found to be 1.268 and the “Log (Fold Change)” value is on record as 0.1031.
On to sp¦P53007¦TXTP_HUMAN, for which, under setting [5], the “Fold Change” value is 0.3964 and the “Log (Fold Change)” value was -0.4018.
Consider sp¦P54709¦AT1B3_HUMAN, for which, under setting [3], the “Fold Change” value was 0.7448 and the “Log (Fold Change)” value was -0.128.
For sp¦P55072¦TERA_HUMAN, under setting [2], the “Fold Change” value came out at 1.115 and the “Log (Fold Change)” value is recorded as 0.04741.
For sp¦P55809¦SCOT1_HUMAN, under setting [5], the “Fold Change” value came to 0.6768 and the “Log (Fold Change)” value is reported as -0.1696.
For sp¦P56545¦CTBP2_HUMAN, under setting [5], the “Fold Change” value was determined as 0.655 and the “Log (Fold Change)” value is -0.1838.
With sp¦P60953¦CDC42_HUMAN, under setting [3], the “Fold Change” value came to 0.7034 and the “Log (Fold Change)” value is on record as -0.1528.
In the case of sp¦P61604¦CH10_HUMAN, under setting [3], the “Fold Change” value is reported as 0.7263 and the “Log (Fold Change)” value was -0.1389.
Turning to sp¦P78527¦PRKDC_HUMAN, under setting [5], the “Fold Change” value was 0.4323 and the “Log (Fold Change)” value is recorded as -0.3642.
On to sp¦P84077¦ARF1_HUMAN, for which, under setting [5], the “Fold Change” value worked out at 0.682 and the “Log (Fold Change)” value is reported as -0.1662.
